Patent US11815511B2 (priority 2019, dated 2023)

Tested on: anti-4,15-diacetoxyscirpenol monoclonal antibody secreted by hybridoma cell strain DAS5G11E7
Assay type: binding, mouse
Conditions: in ng/mL

Molecule | IC50
C[C@@H]1Cc2c(Cl)cc(C(=O)N[C@@H](Cc3ccccc3)C(=O)O)c(O)c2C(=O)O1 [OTA, ochratoxin] | >100,000
CC1=C[C@H]2O[C@@H]3[C@H](O)C[C@](C)([C@@]2(CO)[C@H](O)C1=O)[C@]31CO1 [DON, Deoxynivalenol] | >100,000
HT-2 toxin | >100,000
3-acetyldeoxynivalenol [3-acetyl-DON] | >100,000
